Calls of active or inactive are those of the source. The calls are words filed in the database; no cut-off is given here.
Assays:
[1] = molecular target: T1, Cytochrome P450 3A4 (Homo sapiens, UniProt P08684); assay: Inhibition of CYP3A4 using felodipine as substrate; type: ADME
[2] = test system: Rattus norvegicus; assay: Increase in noradrenaline level in interstitial fluid of rat prefrontal cortex at 0.3 to 3.2 mg/kg, sc by microdialysis method relative to baseline level; type: functional; settings: dose mg/kg 0.3-3.2; route subcutaneous
[3] = test system: MDR1 (P-gp); assay: Apparent permeability from apical to basolateral side of MDCK cells expressing MDR1 at 10 uM; type: ADME, cell-based, Canis lupus familiaris; settings: dog
[4] = molecular target: Voltage-gated inwardly rectifying potassium channel KCNH2 (Homo sapiens, UniProt Q12809); assay: Displacement of [3H]dofetilide from human ERG
[5] = test system: MDR1 (P-gp); assay: Efflux ratio of permeability from […] in MDCK cells expressing MDR1 at 10 uM; type: ADME, cell-based, Canis lupus familiaris; settings: dog
[6] = Dissociation constant, pKa of the compound; type: physicochemical
[7] = molecular target: Cytochrome P450 2D6 (Homo sapiens, UniProt P10635); assay: Inhibition of CYP2D6; type: ADME
[8] = molecular target: T2, Muscarinic acetylcholine receptor M4 (Homo sapiens, UniProt P08173); assay: Binding affinity to human muscarinic M4 receptor
T2 sequence (P08173 whole entry): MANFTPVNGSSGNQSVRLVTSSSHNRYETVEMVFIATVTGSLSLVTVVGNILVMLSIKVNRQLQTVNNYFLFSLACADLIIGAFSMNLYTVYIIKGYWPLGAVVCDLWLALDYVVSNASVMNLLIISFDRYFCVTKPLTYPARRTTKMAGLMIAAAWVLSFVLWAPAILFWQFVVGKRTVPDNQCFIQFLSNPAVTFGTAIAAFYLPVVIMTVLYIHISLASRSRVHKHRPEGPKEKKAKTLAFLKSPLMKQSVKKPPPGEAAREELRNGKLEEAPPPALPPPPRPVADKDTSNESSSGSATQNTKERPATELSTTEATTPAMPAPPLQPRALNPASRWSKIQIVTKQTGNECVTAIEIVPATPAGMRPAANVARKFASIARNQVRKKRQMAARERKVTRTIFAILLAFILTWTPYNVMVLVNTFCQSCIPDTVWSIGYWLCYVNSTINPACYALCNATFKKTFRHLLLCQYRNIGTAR

[9] = Apparent permeability from apical to basolateral side of human Caco-2 cells at 10 uM; type: ADME, cell-based
[10] = Apparent permeability from basolateral to apical side of human Caco-2 cells at 10 uM; type: ADME, cell-based
[11] = molecular target: hERG (KCNH2) (Homo sapiens, UniProt Q12809); assay: Displacement of [3H]dofetilide from human ERG at 10 uM; settings: probe [3H]dofetilide
[12] = molecular target: Sodium channel protein type 5 subunit alpha (Homo sapiens, UniProt Q14524); assay: Blockade of Nav1.5 sodium channel
[13] = molecular target: T3, Muscarinic acetylcholine receptor M5 (Homo sapiens) (UniProt P08912); assay: Binding affinity to human muscarinic M5 receptor at 10 uM
T3 sequence (whole entry): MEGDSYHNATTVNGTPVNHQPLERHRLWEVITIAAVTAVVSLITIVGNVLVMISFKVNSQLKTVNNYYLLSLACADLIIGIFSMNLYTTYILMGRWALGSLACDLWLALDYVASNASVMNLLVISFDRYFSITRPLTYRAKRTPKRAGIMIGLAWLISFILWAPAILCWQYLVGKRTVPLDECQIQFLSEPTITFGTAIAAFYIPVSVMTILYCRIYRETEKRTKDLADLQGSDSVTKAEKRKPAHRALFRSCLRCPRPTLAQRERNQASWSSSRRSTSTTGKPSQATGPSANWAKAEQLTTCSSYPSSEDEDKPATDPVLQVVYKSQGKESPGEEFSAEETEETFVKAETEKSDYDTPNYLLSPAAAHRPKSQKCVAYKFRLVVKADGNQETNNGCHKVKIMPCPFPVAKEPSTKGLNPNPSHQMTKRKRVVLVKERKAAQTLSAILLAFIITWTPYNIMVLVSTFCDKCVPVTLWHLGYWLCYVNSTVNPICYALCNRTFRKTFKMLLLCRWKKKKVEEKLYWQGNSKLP

[14] = molecular target: T1, Cytochrome P450 3A4; assay: Inhibition of CYP3A4 using testosterone as substrate; type: ADME
[15] = molecular target: T4, Muscarinic acetylcholine receptor M4 (Homo sapiens) (UniProt P08173); assay: Binding affinity to human muscarinic M4 receptor at 10 uM
T4 sequence (whole entry): T2 sequence (P08173 whole entry)

[16] = test system: MDR1 (P-gp); assay: Apparent permeability from basolateral to apical side of MDCK cells expressing MDR1 at 10 uM; type: ADME, cell-based, Canis lupus familiaris; settings: dog
[17] = molecular target: T5, Cytochrome P450 1A2 (Homo sapiens, UniProt P05177); assay: Inhibition of CYP1A2; type: ADME
T5 sequence (P05177 whole entry): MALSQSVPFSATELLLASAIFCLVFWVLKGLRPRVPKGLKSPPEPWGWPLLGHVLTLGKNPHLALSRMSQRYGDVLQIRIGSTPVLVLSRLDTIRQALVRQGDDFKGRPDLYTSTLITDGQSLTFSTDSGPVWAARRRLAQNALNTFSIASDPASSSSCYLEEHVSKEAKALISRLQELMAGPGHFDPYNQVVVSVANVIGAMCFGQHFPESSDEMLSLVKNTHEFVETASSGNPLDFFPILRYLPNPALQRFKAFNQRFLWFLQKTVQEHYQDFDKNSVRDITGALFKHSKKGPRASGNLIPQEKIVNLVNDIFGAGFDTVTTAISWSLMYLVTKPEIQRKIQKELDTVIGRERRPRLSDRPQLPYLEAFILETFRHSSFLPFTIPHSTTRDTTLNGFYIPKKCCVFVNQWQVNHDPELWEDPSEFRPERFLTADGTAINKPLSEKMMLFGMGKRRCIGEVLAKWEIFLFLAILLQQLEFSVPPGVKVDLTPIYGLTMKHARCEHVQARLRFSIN

[18] = molecular target: T1, Cytochrome P450 3A4; assay: Inhibition of CYP3A4 using midazolam as substrate; type: ADME
[19] = Intrinsic clearance in human liver microsomes; type: ADME, Microsome
[20] = molecular target: Cytochrome P450 2C19 (Homo sapiens, UniProt P33261); assay: Inhibition of CYP2C19; type: ADME
[21] = molecular target: T6, Muscarinic acetylcholine receptor M5 (Homo sapiens, UniProt P08912); assay: Binding affinity to human muscarinic M5 receptor
T6 sequence (P08912 whole entry): T3 sequence (whole entry)

[22] = molecular target: Transporter (Rattus norvegicus, UniProt Q63380); assay: Binding affinity to rat NET expressed in HEK293 cells; type: cell-based
[23] = test system: Rattus norvegicus; assay: Ex vivo NET occupancy in rat neocortical tissue at 3 mg/kg, sc after 1 hr by [3H]nisoxetine binding assay; type: functional; settings: route subcutaneous
[24] = molecular target: Sodium-dependent dopamine transporter (Homo sapiens, UniProt Q01959); assay: Displacement of radioligand from human recombinant DAT expressed in HEK293 cells by scintillation proximity assay; type: cell-based
[25] = molecular target: Sodium-dependent serotonin transporter (Homo sapiens, UniProt P31645); assay: Displacement of [3H]citalopram from human recombinant SERT expressed in HEK293 cells by scintillation proximity assay; type: cell-based
[26] = molecular target: Sodium-dependent noradrenaline transporter (Homo sapiens, UniProt P23975); assay: Displacement of [3H]nisoxetine from human recombinant NET expressed in HEK293 cells by scintillation proximity assay; type: cell-based
[27] = molecular target: Cytochrome P450 2C9 (Homo sapiens, UniProt P11712); assay: Inhibition of CYP2C9; type: ADME
[28] = test system: Rattus norvegicus; assay: Effect on dihydroxyphenylacetic acid level in rat prefrontal cortex up to 3.2 mg/kg, sc by microdialysis method; type: functional, organism-based; parameters: dose 3.2 mg/kg
[29] = Binding affinity to sodium channel site 2
[30] = test system: Rattus norvegicus; assay: Effect on 5-hydroxyindoleacetic acid level in rat prefrontal cortex up to 3.2 mg/kg, sc by microdialysis method; type: functional, organism-based; parameters: dose 3.2 mg/kg

T1 sequence (P08684 whole entry): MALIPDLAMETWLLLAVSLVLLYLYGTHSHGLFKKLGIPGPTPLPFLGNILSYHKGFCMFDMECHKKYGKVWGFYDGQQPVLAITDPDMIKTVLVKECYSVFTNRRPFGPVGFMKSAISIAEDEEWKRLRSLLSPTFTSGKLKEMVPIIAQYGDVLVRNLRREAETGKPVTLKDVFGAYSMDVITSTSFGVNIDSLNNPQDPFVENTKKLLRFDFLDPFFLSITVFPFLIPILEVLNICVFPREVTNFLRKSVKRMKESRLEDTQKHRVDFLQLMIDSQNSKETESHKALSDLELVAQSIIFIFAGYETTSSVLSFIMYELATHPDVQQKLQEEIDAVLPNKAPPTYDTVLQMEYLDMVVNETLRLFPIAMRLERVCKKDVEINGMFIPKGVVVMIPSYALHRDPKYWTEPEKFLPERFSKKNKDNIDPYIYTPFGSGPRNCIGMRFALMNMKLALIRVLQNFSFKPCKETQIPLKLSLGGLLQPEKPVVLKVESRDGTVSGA
Sodium-dependent dopamine transporter, sequence (Q01959 whole entry): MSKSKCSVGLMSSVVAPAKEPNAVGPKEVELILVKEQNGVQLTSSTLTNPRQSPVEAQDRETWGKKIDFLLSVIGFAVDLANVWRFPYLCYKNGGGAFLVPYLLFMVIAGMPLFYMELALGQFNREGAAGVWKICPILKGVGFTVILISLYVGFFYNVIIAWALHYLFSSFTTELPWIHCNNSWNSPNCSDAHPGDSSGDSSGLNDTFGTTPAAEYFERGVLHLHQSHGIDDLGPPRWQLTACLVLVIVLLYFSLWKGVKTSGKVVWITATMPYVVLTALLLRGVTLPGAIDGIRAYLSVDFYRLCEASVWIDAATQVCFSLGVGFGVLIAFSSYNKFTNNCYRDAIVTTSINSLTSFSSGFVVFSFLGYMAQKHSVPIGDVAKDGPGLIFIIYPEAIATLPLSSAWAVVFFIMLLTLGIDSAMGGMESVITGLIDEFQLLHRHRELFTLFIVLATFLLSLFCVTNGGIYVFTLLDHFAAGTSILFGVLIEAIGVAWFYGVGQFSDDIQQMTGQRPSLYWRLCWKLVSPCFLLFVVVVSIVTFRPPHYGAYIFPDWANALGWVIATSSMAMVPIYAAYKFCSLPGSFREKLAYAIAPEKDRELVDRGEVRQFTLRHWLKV
Sodium-dependent serotonin transporter, sequence (P31645 whole entry): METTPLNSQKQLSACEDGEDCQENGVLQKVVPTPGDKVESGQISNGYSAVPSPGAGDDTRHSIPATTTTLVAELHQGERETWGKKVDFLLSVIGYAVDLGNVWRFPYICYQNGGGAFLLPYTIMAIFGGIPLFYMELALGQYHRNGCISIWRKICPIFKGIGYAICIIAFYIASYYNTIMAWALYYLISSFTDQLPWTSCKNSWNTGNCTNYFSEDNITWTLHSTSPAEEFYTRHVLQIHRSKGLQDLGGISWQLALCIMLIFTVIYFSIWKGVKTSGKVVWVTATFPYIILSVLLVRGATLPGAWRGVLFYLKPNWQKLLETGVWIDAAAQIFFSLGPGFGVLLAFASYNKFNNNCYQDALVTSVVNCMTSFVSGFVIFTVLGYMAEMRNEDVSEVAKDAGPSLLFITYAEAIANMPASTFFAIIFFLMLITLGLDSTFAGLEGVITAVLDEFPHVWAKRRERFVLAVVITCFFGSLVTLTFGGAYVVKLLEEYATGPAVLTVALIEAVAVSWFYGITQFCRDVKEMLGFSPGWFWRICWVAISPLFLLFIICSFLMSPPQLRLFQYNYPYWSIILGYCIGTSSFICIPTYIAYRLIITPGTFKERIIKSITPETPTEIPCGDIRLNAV
Voltage-gated inwardly rectifying potassium channel KCNH2, sequence (Q12809 whole entry): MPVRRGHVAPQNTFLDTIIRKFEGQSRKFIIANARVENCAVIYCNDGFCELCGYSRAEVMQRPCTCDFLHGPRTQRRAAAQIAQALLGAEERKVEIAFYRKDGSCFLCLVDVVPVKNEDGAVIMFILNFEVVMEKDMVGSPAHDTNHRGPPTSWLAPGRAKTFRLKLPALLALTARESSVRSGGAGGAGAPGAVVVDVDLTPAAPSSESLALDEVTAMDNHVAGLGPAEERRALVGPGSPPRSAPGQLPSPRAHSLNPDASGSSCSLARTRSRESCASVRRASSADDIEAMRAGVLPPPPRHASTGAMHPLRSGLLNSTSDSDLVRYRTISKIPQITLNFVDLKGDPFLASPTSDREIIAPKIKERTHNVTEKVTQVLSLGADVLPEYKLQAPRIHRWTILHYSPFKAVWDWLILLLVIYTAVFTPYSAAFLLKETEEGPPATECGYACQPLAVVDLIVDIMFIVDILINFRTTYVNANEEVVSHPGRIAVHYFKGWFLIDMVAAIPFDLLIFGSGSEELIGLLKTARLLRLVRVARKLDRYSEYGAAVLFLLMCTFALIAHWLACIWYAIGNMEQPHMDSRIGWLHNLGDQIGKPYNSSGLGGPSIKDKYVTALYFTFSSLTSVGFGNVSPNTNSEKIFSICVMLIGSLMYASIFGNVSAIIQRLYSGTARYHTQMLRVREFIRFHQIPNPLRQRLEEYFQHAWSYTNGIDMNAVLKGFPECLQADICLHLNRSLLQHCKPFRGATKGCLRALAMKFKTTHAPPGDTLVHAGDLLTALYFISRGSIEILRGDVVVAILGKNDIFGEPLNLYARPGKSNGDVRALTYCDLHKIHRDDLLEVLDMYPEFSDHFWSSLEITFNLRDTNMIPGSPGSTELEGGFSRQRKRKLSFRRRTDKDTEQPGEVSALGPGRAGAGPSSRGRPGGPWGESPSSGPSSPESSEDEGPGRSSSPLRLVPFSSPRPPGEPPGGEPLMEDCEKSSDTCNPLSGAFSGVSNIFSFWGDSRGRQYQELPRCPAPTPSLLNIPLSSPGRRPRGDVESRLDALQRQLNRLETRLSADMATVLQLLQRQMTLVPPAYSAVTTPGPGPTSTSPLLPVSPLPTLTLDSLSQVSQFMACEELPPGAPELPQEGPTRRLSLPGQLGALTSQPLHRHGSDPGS
hERG (KCNH2), sequence (Q12809 whole entry): as above
Cytochrome P450 2C19, sequence (P33261 whole entry): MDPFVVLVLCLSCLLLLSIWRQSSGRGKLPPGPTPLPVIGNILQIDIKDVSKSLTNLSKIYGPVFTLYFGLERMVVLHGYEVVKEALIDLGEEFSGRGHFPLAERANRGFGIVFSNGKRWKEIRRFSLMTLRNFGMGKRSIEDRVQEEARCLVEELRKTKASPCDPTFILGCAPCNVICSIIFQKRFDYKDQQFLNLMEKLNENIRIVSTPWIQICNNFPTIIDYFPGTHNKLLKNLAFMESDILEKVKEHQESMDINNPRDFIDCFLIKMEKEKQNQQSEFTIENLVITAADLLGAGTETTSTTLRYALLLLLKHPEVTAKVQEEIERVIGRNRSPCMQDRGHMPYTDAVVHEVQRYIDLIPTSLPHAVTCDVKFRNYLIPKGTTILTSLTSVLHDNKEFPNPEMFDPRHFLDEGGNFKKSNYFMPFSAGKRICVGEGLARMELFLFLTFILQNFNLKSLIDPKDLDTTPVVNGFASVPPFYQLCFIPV
Cytochrome P450 2D6, sequence (P10635 whole entry): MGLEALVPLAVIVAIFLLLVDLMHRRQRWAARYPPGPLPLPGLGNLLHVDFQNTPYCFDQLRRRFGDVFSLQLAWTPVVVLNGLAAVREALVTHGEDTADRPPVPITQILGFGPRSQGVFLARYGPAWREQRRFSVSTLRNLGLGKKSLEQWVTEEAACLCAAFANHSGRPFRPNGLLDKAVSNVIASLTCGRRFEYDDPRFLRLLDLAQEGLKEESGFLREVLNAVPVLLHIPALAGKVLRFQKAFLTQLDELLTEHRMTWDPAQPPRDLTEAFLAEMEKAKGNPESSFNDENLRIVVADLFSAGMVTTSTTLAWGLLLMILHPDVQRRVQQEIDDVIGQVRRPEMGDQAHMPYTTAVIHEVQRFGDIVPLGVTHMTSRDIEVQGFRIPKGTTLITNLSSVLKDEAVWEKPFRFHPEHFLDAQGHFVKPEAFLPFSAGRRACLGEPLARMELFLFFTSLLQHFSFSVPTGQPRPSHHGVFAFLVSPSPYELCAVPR

O=C(c1ccccc1C(F)(F)F)N(CC1CCC1)[C@H]1CCNC1
IC50 [1]: 22 µM
Activity [2]: 200%
Papp A→B at 10 µM [3]: 11 ×10⁻⁶ cm/s
IC50 [4]: > 20 µM
efflux ratio at 10 µM [5]: 5.2
pKa [6]: 9.5
IC50 [7]: 15.1 µM
Ki [8]: 4.3 µM
Papp A→B at 10 µM [9]: 16 ×10⁻⁶ cm/s
Papp B→A at 10 µM [10]: 33 ×10⁻⁶ cm/s
inhibition at 10 µM [11]: 48%
IC50 [12]: > 26 µM
inhibition [13]: > 50%
IC50 [14]: 31.2 µM
inhibition [15]: > 50%
Papp B→A at 10 µM [16]: 57 ×10⁻⁶ cm/s
IC50 [17]: > 30 µM
IC50 [18]: 12.2 µM
microsomal CLint [19]: < 7 µL/min/mg
IC50 [20]: > 30 µM
Ki [21]: 1800 nM
Ki [22]: 3.9 nM
Activity [23]: 52%
Ki [24]: 2290 nM
Ki [25]: 224 nM
Ki [26]: 6 nM
IC50 [27]: > 30 µM
Activity [28]: inactive
Ki [29]: 3.7 µM
Activity [30]: inactive

Source: ChEMBL document CHEMBL1153484, “Design, synthesis and evaluation of N-[(3S)-pyrrolidin-3-yl]benzamides as selective noradrenaline reuptake inhibitors: CNS penetration in a more polar template” (Bioorg Med Chem Lett, 2009)
